According to US20210137941A1 (ZARODEX THERAPEUTICS LIMITED, priority 2018, published 2021):

Key:
[1] = tested on: bone marrow B cell subsets; test: Wild type mouse study: bone marrow B cell immunophenotyping by flow cytometry; assay type: in vivo, C57BL/6 mice; conditions: 1 mg/kg IP, 21 days
[2] = tested on: circulating immunoglobulins; test: Wild type mouse study: circulating immunoglobulin profile by ELISA; assay type: in vivo, C57BL/6 mice; conditions: clozapine 5 and 10 mg/kg, haloperidol 1 mg/kg, IP 21 days; FIG. 24
[3] = tested on: splenic B cell and T cell populations; test: Wild type mouse study: spleen immunophenotyping by flow cytometry; assay type: in vivo, C57BL/6 mice
[4] = no clear dose-dependent relationship; not significant beyond 30 days; cited from earlier work
IgE = conditions: cited from earlier work
Chain of IgE (P01854 1-425 limits assumed): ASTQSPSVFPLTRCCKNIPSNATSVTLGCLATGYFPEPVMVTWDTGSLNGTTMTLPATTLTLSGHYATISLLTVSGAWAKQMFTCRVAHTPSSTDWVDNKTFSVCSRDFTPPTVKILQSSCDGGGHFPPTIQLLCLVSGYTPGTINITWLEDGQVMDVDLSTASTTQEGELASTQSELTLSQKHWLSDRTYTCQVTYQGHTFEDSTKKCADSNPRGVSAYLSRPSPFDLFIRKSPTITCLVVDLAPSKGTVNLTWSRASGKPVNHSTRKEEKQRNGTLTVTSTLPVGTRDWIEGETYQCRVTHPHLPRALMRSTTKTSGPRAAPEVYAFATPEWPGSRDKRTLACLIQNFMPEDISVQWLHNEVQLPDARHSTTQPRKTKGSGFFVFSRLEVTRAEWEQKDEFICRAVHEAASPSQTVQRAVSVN

CD20 = target: T1, CD20 (Homo sapiens, UniProt P11836); conditions: cited from earlier work
T1 construct: host or cells: patients' own B cells
T1 sequence (P11836 1-297): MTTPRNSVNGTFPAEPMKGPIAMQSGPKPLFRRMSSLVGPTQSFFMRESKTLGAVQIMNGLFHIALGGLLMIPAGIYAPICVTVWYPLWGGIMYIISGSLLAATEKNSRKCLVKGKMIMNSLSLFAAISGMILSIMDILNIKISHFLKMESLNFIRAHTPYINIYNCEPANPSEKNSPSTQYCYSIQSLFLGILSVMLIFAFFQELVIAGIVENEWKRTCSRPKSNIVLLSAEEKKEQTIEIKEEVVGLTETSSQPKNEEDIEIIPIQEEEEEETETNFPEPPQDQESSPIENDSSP

Compound: O=C(CCCN1CCC(O)(c2ccc(Cl)cc2)CC1)c1ccc(F)cc1 [haloperidol]
- early developing B cell subsets in bone marrow (overall B, pre-pro B, pro-B) ([1]; FIG. 18): no significant effect
- effect on long-lived plasma cells in the bone marrow ([1]; FIG. 20): no effect
- circulating IgA levels compared to control [2]: not observed
- activated T cells (B220+TCR-beta+) in spleen vs control ([3]; clozapine 2.5-10 mg/kg, haloperidol 1 mg/kg, IP 21 days, FIG. 21): modestly apparent
- impact on B cell subpopulations ([3]; comparator, 1 mg/kg IP, 21 days): not observed

Compound: Cc1cc2c(s1)Nc1ccccc1N=C2N1CCN(C)CC1 [olanzapine]
- risk of pneumonia requiring hospitalization [4]: modestly increased risk

Compound: OCCOCCN1CCN(C2=Nc3ccccc3Sc3ccccc32)CC1 [quetiapine]
- risk of pneumonia requiring hospitalization [4]: modestly increased risk

Compound: Cc1nc2n(c(=O)c1CCN1CCC(c3noc4cc(F)ccc34)CC1)CCCC2 [risperidone]
- risk of pneumonia requiring hospitalization [4]: modestly increased risk

Compound: omalizumab: humanised monoclonal anti-IgE antibody
- treatment of refractory chronic spontaneous urticaria (IgE; 2 phase II and 4 phase III trials (Chang et al., 2015)): efficacious and safe
- clinical efficacy in allergic rhinitis (IgE; Holgate et al., 2005, Tsabouri et al., 2014): clinically effective
- effect in refractory/relapsing Churg-Strauss syndrome (IgE; Jachiet et al., 2016): corticosteroid-sparing effect
- efficacy in atopic individuals with coexisting eye disease (IgE; Kopp et al., 2009): has shown efficacy
- burden of asthma symptoms (IgE; inner city children and young adults (Busse et al., 2011)): significant reduction
- clinical outcome in eosinophilic oesophagitis (IgE; pilot study (Loizou et al., 2015)): clinical improvement in a proportion of patients

Compound: rituximab: anti-CD-20 antibody used for B cell depletion
- clinical outcome in Churg-Strauss syndrome (CD20; Mohammad et al., 2016): clinically effective in inducing remission or partial responses
- clinical outcome in atopic dermatitis (CD20; Simon et al., 2008): substantial clinical improvement
- reduction of B cells in the skin, atopic dermatitis (CD20; Simon et al., 2008): ~50%
- effect on IgE levels (CD20; van Vollenhoven et al., 2013): modest
